Measurements: patent US20250049970A1, “DLL3 TARGETING PEPTIDES AND CONSTRUCTS THEREOF” (MARIANA ONCOLOGY INC., priority 2023, published 2025)
pKd: −log10 of the molar value. *1 amine or outer side, *2 acyl side, *3 side chain or, on linkers, in order; H or OH if unused. Where a SMILES comes first, the peptide text is derived from it. Bridges are numbered along the chain shown (N, C = ends). Side-chain parts run from the residue outwards. [ ]: non-standard residue; d: D form. The star is where a group is joined. Ala(1-CH2CO2H-4-piperidyl) = N[C@@H](CC1CCN(CC(=O)O)CC1)C(=O)O; Ala(piperidin-4-yl) = O=C([C@H](CC1CCN([*:3])CC1)N[*:1])[*:2]; DOTA = O=C(O)CN1CCN(CC(=O)O)CCN(CC(=O)*)CCN(CC(=O)O)CC1; Me3N+(CH2)2O(CH2)2O(CH2)2CO = C[N+](C)(C)CCOCCOCCC(=O)*; X3 = O=C([C@H](CC1CCN(CC(=O)[*:3])CC1)N[*:1])[*:2]; 2Nal = N[C@@H](Cc1ccc2ccccc2c1)C(=O)O; NMetBuAla = CN[C@@H](CC(C)(C)C)C(=O)O; Ethylenediamine = C(CN[*:2])N[*:1]; Nle = CCCC[C@H](N)C(=O)O; Nva = CCC[C@H](N)C(=O)O; CH2 = C([*:1])[*:2]

Target: T1, DLL3 (Homo sapiens, UniProt Q9NYJ7)
T1 sequence (Q9NYJ7 27-618): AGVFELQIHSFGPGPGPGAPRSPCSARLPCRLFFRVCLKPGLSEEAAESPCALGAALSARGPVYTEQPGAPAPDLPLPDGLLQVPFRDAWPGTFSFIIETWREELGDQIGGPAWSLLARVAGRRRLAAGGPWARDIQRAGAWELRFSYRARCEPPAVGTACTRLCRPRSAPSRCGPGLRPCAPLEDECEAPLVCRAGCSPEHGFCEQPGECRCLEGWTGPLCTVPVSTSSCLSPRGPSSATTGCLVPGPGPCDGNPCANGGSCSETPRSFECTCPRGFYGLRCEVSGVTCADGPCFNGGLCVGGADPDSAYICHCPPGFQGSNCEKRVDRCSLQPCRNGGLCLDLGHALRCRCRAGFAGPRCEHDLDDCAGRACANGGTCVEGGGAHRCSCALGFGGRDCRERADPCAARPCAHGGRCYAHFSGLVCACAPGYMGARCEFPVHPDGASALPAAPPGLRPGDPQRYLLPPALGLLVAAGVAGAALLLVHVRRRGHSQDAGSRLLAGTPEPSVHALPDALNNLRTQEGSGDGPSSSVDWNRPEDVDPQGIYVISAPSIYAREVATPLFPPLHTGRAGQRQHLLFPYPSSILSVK
Assay: SPR KD, biotinylated human DLL3 on streptavidin chip (Table 8)
Parameters: biotin (biotinylated)
Details: biotinylated human DLL3 on streptavidin sensor chip, 25° C., 1:1 binding model; read-out: SPR KD
Description: Biotinylated target ligand human DLL3 was immobilized on a streptavidin sensor chip. A reference surface was set up for nonspecific binding and refractive index changes. […] Sensorgram curves were fitted with 1:1 binding model, and affinity and kinetic parameters were obtained using Biacore Insight evaluation 4.0. software.

**Q.** With `CCC[C@H](NC(C)=O)C(=O)N[C@@H](Cc1c[nH]c2ccccc12)C(=O)N[C@H](C(=O)N[C@H](C(=O)N[C@H]1CSSC[C@@H](C(=O)N[C@@H](Cc2c[nH]c3ccccc23)C(=O)N2CCC[C@H]2C(N)=O)NC(=O)[C@H](CC(=O)O)NC(=O)[C@H](Cc2cnc[nH]2)NC(=O)[C@H](Cc2c[nH]c3ccccc23)NC(=O)[C@H](CC(N)=O)NC(=O)[C@H](CC(N)=O)NC1=O)[C@@H](C)CC)[C@@H](C)O` [compound 440, Ac-(L-Nva)-W-T-I-C(3)-N-N-W-H-D-C(3)-W-P-CONH2] (Ac-[Nva]WTICNNWHDCWP-NH2; disulfide 5-11) as the compound, how does the pKd read?
**A.** 7.00 to 8.00

**Q.** How did the pKd turn out when `CCCC[C@H](NC(C)=O)C(=O)N[C@@H](Cc1c[nH]c2ccccc12)C(=O)N[C@H](C(=O)N[C@H](C(=O)N[C@H]1CSSC[C@@H](C(=O)N[C@@H](Cc2c[nH]c3ccccc23)C(=O)N2CCC[C@H]2C(N)=O)NC(=O)[C@H](CC(=O)O)NC(=O)[C@H](Cc2cnc[nH]2)NC(=O)[C@H](Cc2c[nH]c3ccccc23)NC(=O)[C@H](CC(N)=O)NC(=O)[C@H](CC(N)=O)NC1=O)[C@@H](C)CC)[C@@H](C)O` [compound 441, Ac-(L-Nle)-W-T-I-C(3)-N-N-W-H-D-C(3)-W-P-CONH2] (Ac-[Nle]WTICNNWHDCWP-NH2; disulfide 5-11) was run?
**A.** 7.00 to 8.00

**Q.** `CC(=O)N[C@@H](Cc1c[nH]c2ccccc12)C(=O)N[C@H](C(=O)N(C)[C@@H](CC(C)(C)C)C(=O)N[C@H]1CSCSC[C@@H](C(=O)N[C@@H](Cc2c[nH]c3ccccc23)C(=O)N2CCC[C@H]2C(N)=O)NC(=O)[C@H](CC(=O)O)NC(=O)[C@H](CCCCNC(=O)CN2CCN(CC(=O)O)CCN(CC(=O)O)CCN(CC(=O)O)CC2)NC(=O)[C@H](Cc2ccc3ccccc3c2)NC(=O)[C@H](CC(N)=O)NC(=O)[C@H](CC2CCN(CC(=O)O)CC2)NC1=O)[C@@H](C)O` [compound 447] (Ac-WT[NMetBuAla]C[Ala(1-CH2CO2H-4-piperidyl)]N[2Nal]K(DOTA)DCWP-NH2; linker 4-10 via CH2) was tested. Which pKd did it give?
**A.** > 9.00

**Q.** How did the pKd turn out when `CC(=O)N[C@@H](Cc1c[nH]c2ccccc12)C(=O)N[C@H](C(=O)N(C)[C@@H](CC(C)(C)C)C(=O)N[C@H]1CSCSC[C@@H](C(=O)N[C@@H](Cc2c[nH]c3ccccc23)C(=O)N2CCC[C@H]2C(N)=O)NC(=O)[C@H](CC(=O)O)NC(=O)[C@H](CCCCNC(=O)CN2CCN(CC(=O)O)CCN(CC(=O)O)CCN(CC(=O)O)CC2)NC(=O)[C@H](Cc2ccc3ccccc3c2)NC(=O)[C@H](CC(N)=O)NC(=O)[C@H](CC2CCN(C(=O)CCOCCOCC[N+](C)(C)C)CC2)NC1=O)[C@@H](C)O` [compound 448] (Ac-WT[NMetBuAla]C[Ala(piperidin-4-yl)](Me3N+(CH2)2O(CH2)2O(CH2)2CO)N[2Nal]K(DOTA)DCWP-NH2; linker 4-10 via CH2) was run?
**A.** > 9.00

**Q.** `CC(=O)N[C@@H](Cc1c[nH]c2ccccc12)C(=O)N[C@H](C(=O)N(C)[C@@H](CC(C)(C)C)C(=O)N[C@H]1CSCSC[C@@H](C(=O)N[C@@H](Cc2c[nH]c3ccccc23)C(=O)N2CCC[C@H]2C(N)=O)NC(=O)[C@H](CC(=O)O)NC(=O)[C@H](CCCCNC(=O)CN2CCN(CC(=O)O)CCN(CC(=O)O)CCN(CC(=O)O)CC2)NC(=O)[C@H](Cc2ccc3ccccc3c2)NC(=O)[C@H](CC(N)=O)NC(=O)[C@H](CC2CCN(CC(=O)NCCNC(=O)CN3CCN(CC(=O)O)CCN(CC(=O)O)CCN(CC(=O)O)CC3)CC2)NC1=O)[C@@H](C)O` [compound 449] (Ac-WT[NMetBuAla]C[X3]([Ethylenediamine-DOTA])N[2Nal]K(DOTA)DCWP-NH2; linker 4-10 via CH2) was tested. Which pKd did it give?
**A.** > 9.00
